Here are results for 21 compounds from PubChem BioAssay AID208 (DTP/NCI, 2004).

In this test the test system is HT29 intrarenal xenograft, nude mice, tumor weight change. Briefly: NCI In Vivo Anticancer Drug Screen. Data for tumor model HT29;CX-1 Human Adenocarcinoma (MER+) (intrarenal inoculation) in NU/NU BALB/C (nude) mice. As to conditions: endpoint: mean tumor weight change, higher = larger tumour. On the procedure: The antitumor activity of compounds was measured in mice bearing transplantable tumors. Survival or tumor size were measured and the results are expressed as the measurement made in the treated group (T) divided by the measurement made in the vehicle treated control group (C). The tumor model used in this assay is HT29;CX-1 Human Adenocarcinoma (MER+) (intrarenal inoculation) in NU/NU BALB/C (nude) mice

Where [1] appears, read: dose: 600.0 mg/kg/injection, schedule: Q04DX004 (sc), vehicle: saline with Tween-80.
[2] abbreviates: dose: 1200.0 mg/kg/injection, schedule: Q04DX004 (sc), vehicle: saline with Tween-80.

“And” between values parts separate entries of the source, which are not always exact repeats. Equal entries are not always repeated. Inconclusive results are not listed.

As to `CC(=O)c1cccc(NC2C(N)C(NC(=O)N(C)C)(C(C)O)C(C)(O)C2(O)COC(=O)c2c(C)cccc2O)c1` (configuration not stated), the T/C is 124 % of control (dose: 0.5 mg/kg/injection, schedule: Q04DX004 (ip), vehicle: saline); 93 % of control (dose: 1.0 mg/kg/injection, schedule: Q04DX004 (ip), vehicle: saline); 75 % of control (dose: 2.0 mg/kg/injection, schedule: Q04DX004 (ip), vehicle: saline); 100 % of control (dose: 4.0 mg/kg/injection, schedule: Q04DX004 (ip), vehicle: saline).
In the case of `C[n+]1c(-c2cccc3ccccc23)c2cc(N)ccc2c2ccccc21`, the T/C was 119 % of control (dose: 3.0 mg/kg/injection, schedule: Q04DX004 (sc), vehicle: saline); 152 % of control (dose: 6.0 mg/kg/injection, schedule: Q04DX004 (sc), vehicle: saline); 78 % of control (dose: 12.0 mg/kg/injection, schedule: Q04DX004 (sc), vehicle: saline).
For the compound `Cc1ccc(S(=O)(=O)N/N=C/C(=O)O)cc1`, the T/C (dose: 100.0 mg/kg/injection, schedule: Q01DX010 (sc), vehicle: Klucel (hydroxypropylcellulose) (HPC)) is 87 % of control; the T/C (dose: 200.0 mg/kg/injection, schedule: Q01DX010 (sc), vehicle: Klucel (hydroxypropylcellulose) (HPC)) is 50 % of control; the T/C (dose: 400.0 mg/kg/injection, schedule: Q01DX010 (sc), vehicle: Klucel (hydroxypropylcellulose) (HPC)) is 96 % of control; the T/C (dose: 800.0 mg/kg/injection, schedule: Q01DX010 (sc), vehicle: Klucel (hydroxypropylcellulose) (HPC)) was 106 % of control.
For `C/C(=N\NC(=S)N1CCN(c2ccccn2)CC1)c1ccccn1`, under “dose: 50.0 mg/kg/injection, schedule: Q04DX004 (sc), vehicle: water”, the T/C was 158 % of control.
As to `CO[C@H](/C(C)=C/C=C/C(C)=C/c1coc(C)n1)[C@H](C)[C@H]1C[C@@H](O)[C@@]2(C)O[C@H]2/C=C/[C@@H](C)[C@@H]2C[C@@H](CC(=O)O2)C[C@H]2O[C@@H]2C(=O)O1`, the T/C by setting is: (dose: 0.13 mg/kg/injection, schedule: Q04DX004 (sc), vehicle: Klucel (hydroxypropylcellulose) (HPC)) 73 % of control and 88 % of control; (dose: 1.0 mg/kg/injection, schedule: Q04DX004 (sc), vehicle: Klucel (hydroxypropylcellulose) (HPC)) 57 % of control.
For `CCOC(=O)NC1=C(N2CC2)C(=O)C(NC(=O)OCC)=C(N2CC2)C1=O`, the T/C is 120 % of control (dose: 1.56 mg/kg/injection, schedule: Q01DX010 (sc), vehicle: saline); 88 % of control (dose: 3.13 mg/kg/injection, schedule: Q01DX010 (sc), vehicle: saline); 107 % of control (dose: 6.25 mg/kg/injection, schedule: Q01DX010 (sc), vehicle: saline).
Turning to `Nc1ncnc2c1ccn2C1OC(CO)C(O)C1O` (configuration not stated), the T/C (dose: 2.0 mg/kg/injection, schedule: Q01DX010 (sc), vehicle: Klucel (hydroxypropylcellulose) (HPC)) is 96 % of control and the T/C (dose: 4.0 mg/kg/injection, schedule: Q01DX010 (sc), vehicle: Klucel (hydroxypropylcellulose) (HPC)) is 81 % of control.
For `O=C1OC(C(O)CO)C(O)=C1O` (configuration not stated), the T/C runs as follows: (dose: 400.0 mg/kg/injection, schedule: Q01DX010 (sc), vehicle: saline) 113 % of control; (dose: 800.0 mg/kg/injection, schedule: Q01DX010 (sc), vehicle: saline) 167 % of control.
`O=S(=O)(O)O.[NH-]C1CCCCC1[NH-].[Pt+2]` (configuration not stated): the T/C (dose: 0.63 mg/kg/injection, schedule: Q01DX010 (sc), vehicle: dextrose) was 124 % of control; the T/C (dose: 1.25 mg/kg/injection, schedule: Q01DX010 (sc), vehicle: dextrose) is 83 % of control; the T/C (dose: 2.5 mg/kg/injection, schedule: Q01DX010 (sc), vehicle: dextrose) is 73 % of control.
As for `Cc1cc(NCCCCCCCCNc2cc(C)nc3cc(N(C)C)ccc23)c2ccc(N(C)C)cc2n1`, the T/C reads like this: (dose: 75.0 mg/kg/injection, schedule: Q04DX004 (sc), vehicle: distilled water + Tween-80 + alcohol) 84 % of control; (dose: 150.0 mg/kg/injection, schedule: Q04DX004 (sc), vehicle: distilled water + Tween-80 + alcohol) 62 % of control; (dose: 300.0 mg/kg/injection, schedule: Q04DX004 (sc), vehicle: distilled water + Tween-80 + alcohol) 85 % of control; (dose: 600.0 mg/kg/injection, schedule: Q04DX004 (sc), vehicle: distilled water + Tween-80 + alcohol) 35 % of control.
In the case of `C=COC(=O)C(Cc1ccccc1)NC(=O)OCc1ccccc1` (configuration not stated), the T/C was 100 % of control (dose: 150.0 mg/kg/injection, schedule: Q04DX004 (sc), vehicle: saline with Tween-80); 80 % of control (dose: 300.0 mg/kg/injection, schedule: Q04DX004 (sc), vehicle: saline with Tween-80); 123 % of control under setting [1]; 60 % of control under setting [2].
In the case of `[Cl][Hg][Cl]`, the T/C by setting is: (dose: 2.5 mg/kg/injection, schedule: Q04DX004 (ip), vehicle: saline) 155 % of control; (dose: 5.0 mg/kg/injection, schedule: Q04DX004 (ip), vehicle: saline) 68 % of control.
In the case of `COC1C(C)OC(OC2CC(C)(O)Cc3cc4c(c(O)c32)C(=O)c2c(O)cc3c(c2C4=O)OC2OC3(C)C(O)C(N(C)C)C2O)C(OC)C1(C)OC` (configuration not stated), the T/C (dose: 20.0 mg/kg/injection, schedule: Q04DX004 (sc), vehicle: Klucel (hydroxypropylcellulose) (HPC)) is 74 % of control and the T/C (dose: 40.0 mg/kg/injection, schedule: Q04DX004 (sc), vehicle: Klucel (hydroxypropylcellulose) (HPC)) was 49 % of control.
On to `COc1ccc2c(ccc3oc([N+](=O)[O-])cc32)c1`, for which the T/C reads like this: (dose: 150.0 mg/kg/injection, schedule: Q04DX004 (sc), vehicle: Klucel (hydroxypropylcellulose) (HPC)) 113 % of control; (dose: 600.0 mg/kg/injection, schedule: Q04DX004 (sc), vehicle: Klucel (hydroxypropylcellulose) (HPC)) 76 % of control.
As to `c1ccc2c(NCCCCCCNc3c4ccccc4nc4ccccc34)c3ccccc3nc2c1`, the T/C was 154 % of control (dose: 5.0 mg/kg/injection, schedule: Q01DX010 (sc), vehicle: Klucel (hydroxypropylcellulose) (HPC)) and 88 % of control (dose: 10.0 mg/kg/injection, schedule: Q01DX010 (sc), vehicle: Klucel (hydroxypropylcellulose) (HPC)).
For the compound `Cc1cnc(/C=N\NC(N)=S)c2cccc(N)c12`, where the note is “dose: 125.0 mg/kg/injection, schedule: Q04DX004 (ip), vehicle: saline with Tween-80”, the T/C is 92 % of control.
`O=C1c2ccccc2C(=O)c2c(NCCNCCO)ccc(O)c21`: the T/C runs as follows: (dose: 12.5 mg/kg/injection, schedule: Q04DX004 (sc), vehicle: saline) 104 % of control; (dose: 25.0 mg/kg/injection, schedule: Q04DX004 (sc), vehicle: saline) 105 % of control; (dose: 100.0 mg/kg/injection, schedule: Q04DX004 (sc), vehicle: saline) 74 % of control.
Regarding `CC[C@@]1(O)C(=O)OCc2c1cc1n(c2=O)Cc2cc3ccccc3nc2-1`, the T/C was 75 % of control (dose: 0.75 mg/kg/injection, schedule: Q04DX004 (sc), vehicle: saline with Tween-80); 49 % of control (dose: 3.0 mg/kg/injection, schedule: Q04DX004 (sc), vehicle: saline with Tween-80); 48 % of control (dose: 6.0 mg/kg/injection, schedule: Q04DX004 (sc), vehicle: saline with Tween-80); 8 % of control (dose: 32.0 mg/kg/injection, schedule: Q04DX004 (sc), vehicle: saline with Tween-80).
Regarding `[N-]=[N+]=[N-]`, the T/C was 79 % of control (dose: 1.5 mg/kg/injection, schedule: Q04DX004 (ip), vehicle: water); 90 % of control (dose: 3.0 mg/kg/injection, schedule: Q04DX004 (ip), vehicle: water); 59 % of control (dose: 6.0 mg/kg/injection, schedule: Q04DX004 (ip), vehicle: water); 62 % of control (dose: 12.0 mg/kg/injection, schedule: Q04DX004 (ip), vehicle: water).
For `COc1cc(C(C)(C)C)cc(OC)c1C(O)(c1c(OC)cc(C(C)(C)C)cc1OC)c1c(OC)cc(C(C)(C)C)cc1OC`, the T/C was 51 % of control (dose: 50.0 mg/kg/injection, schedule: Q04DX004 (sc), vehicle: saline with Tween-80); 79 % of control (dose: 100.0 mg/kg/injection, schedule: Q04DX004 (sc), vehicle: saline with Tween-80); 63 % of control (dose: 200.0 mg/kg/injection, schedule: Q04DX004 (sc), vehicle: saline with Tween-80); 68 % of control (dose: 400.0 mg/kg/injection, schedule: Q04DX004 (sc), vehicle: saline with Tween-80); 102 % of control under setting [1]; 80 % of control under setting [2]. For the setting “dose: 2400.0 mg/kg/injection, schedule: Q04DX004 (sc), vehicle: saline with Tween-80”, the T/C was 61 % of control.
Regarding `O=NN(CCCl)C(=O)NC1OC(CO)C(O)C(O)C1O` (configuration not stated), the T/C reads like this: (dose: 5.0 mg/kg/injection, schedule: Q04DX004 (sc), vehicle: saline) 75 % of control; (dose: 10.0 mg/kg/injection, schedule: Q04DX004 (sc), vehicle: saline) 76 % of control; (dose: 20.0 mg/kg/injection, schedule: Q04DX004 (sc), vehicle: saline) 57 % of control.
